Where two headings read alike, the source gives them in different places. Starred links: 1 amine or outer side, 2 acyl side, 3 side chain; linkers in the order of their positions; H or OH if unused. Positions of bridges follow the written chain, without caps; N, C: chain ends. Non-standard residues stand in square brackets, D forms with d. Residues, ends and D or L forms follow the SMILES beside them. *: point of attachment. Phe(4-(CH2)5CO) = O=C([C@H](Cc1ccc(CCCCCC(=O)[*:3])cc1)N[*:1])[*:2]; Phe(3-(CH2)4CO) = O=C([C@H](Cc1cccc(CCCCC(=O)[*:3])c1)N[*:1])[*:2]; NMeF = CN[C@@H](Cc1ccccc1)C(=O)O; NMeI = CC[C@H](C)[C@H](NC)C(=O)O; AllylGly = C=CC[C@H](N)C(=O)O; NMeL = CN[C@@H](CC(C)C)C(=O)O; Ala(CN) = N#CC[C@H](N)C(=O)O; NMeV = CN[C@H](C(=O)O)C(C)C; NMeA = CN[C@@H](C)C(=O)O; Piperidide = C1CCN(*)CC1; Aze = O=C(O)[C@@H]1CCN1; NPrGly = CCCNCC(=O)O; Sar = CNCC(=O)O; tBu = CC(C)(C)*
Assay: Metabolic stability in human hepatic microsome
Format: in vitro ADME
Settings: microsomes
[1] = pH 7.4, human hepatic microsome, NADPH(+), read-out: CL NADPH(+)

| SMILES | microsomal CLint at 1 uM [1] | microsomal CLint at 1 uM (human, pH 7.4, CL NADPH(+)) |
| --- | --- | --- |
| CC[C@H](C)[C@@H]1NC(=O)[C@H](Cc2ccccc2)N(C)C(=O)[C@H](Cc2ccccc2)NC(=O)[C@H](C(C)C)N(C)C(=O)[C@H](CC(C)C)N(C)C(=O)[C@H](CC(C)C)NC(=O)[C@H](C)NC(=O)C[C@@H](C(=O)N2CCCCC2)NC(=O)[C@H]([C@@H](C)O)NC(=O)CNC(=O)[C@H](C)N(C)C1=O [DP-85] (AL[NMeL][NMeV]F[NMeF]I[NMeA]GTD-Piperidide; lactam N-11) | 58 µL/min/mg |  |
| CC[C@H](C)[C@H](NC(=O)[C@H](CC(C)C)N(C)C(=O)[C@H](Cc1ccccc1)N(C)C(=O)[C@@H]1CC(=O)N(C)[C@@H](C)C(=O)N[C@@H](C(C)C)C(=O)N[C@@H](C)C(=O)N[C@@H](CC(C)C)C(=O)N(C)[C@@H](Cc2ccccc2)C(=O)N[C@@H](CC(C)C)C(=O)N[C@@H]([C@@H](C)O)C(=O)N1)C(=O)N1CCCCC1 [DP-932] ([NMeA]VAL[NMeF]LTD[NMeF][NMeL]I-Piperidide; lactam N-8) | 108 µL/min/mg |  |
| CC[C@H](C)[C@H]1C(=O)N[C@@H](Cc2ccccc2)C(=O)N(C)[C@@H](Cc2ccccc2)C(=O)N[C@@H]([C@@H](C)O)C(=O)N2CCC[C@H]2C(=O)N[C@@H](CC(C)C)C(=O)N[C@H](C(=O)N2CCCCC2)CC(=O)N[C@@H](C)C(=O)NCC(=O)N(C)[C@@H](C(C)C)C(=O)N(C)[C@@H](CC(C)C)C(=O)N[C@@H](C)C(=O)N1C [DP-26] (AG[NMeV][NMeL]A[NMeI]F[NMeF]TPLD-Piperidide; lactam N-12) |  | 62 µL/min/mg |
| CC(C)C[C@@H]1NC(=O)C[C@@H](C(=O)N2CCCCC2)NC(=O)[C@H]([C@@H](C)O)NC(=O)[C@H](C(C)C)N(C)C(=O)CN(C)C(=O)[C@H](CC(C)C)N(C)C(=O)[C@H](Cc2ccccc2)NC(=O)[C@H](Cc2ccccc2)N(C)C(=O)[C@@H](C(C)C)NC(=O)[C@H](CC(C)C)N(C)C(=O)[C@H](C)N(C)C1=O [DP-615] (L[NMeA][NMeL][dV][NMeF]F[NMeL][Sar][NMeV]TD-Piperidide; lactam N-11) | 42 µL/min/mg |  |
| CC(C)C[C@H]1C(=O)N[C@@H](COC(C)(C)C)C(=O)N(C)[C@@H](CC(C)C)C(=O)N[C@H](C(=O)N2CCCCC2)Cc2ccc(cc2)CCCCCC(=O)N(C)[C@@H](C)C(=O)N(C)[C@@H](Cc2ccccc2)C(=O)N(C)[C@@H](CC(C)C)C(=O)N[C@@H]([C@@H](C)O)C(=O)N(C)CC(=O)N1C [DP-837] ([NMeA][NMeF][NMeL]T[Sar][NMeL]S(tBu)[NMeL][Phe(4-(CH2)5CO)]-Piperidide; lactam N-9) | 284 µL/min/mg |  |
| CC[C@H](C)[C@H]1C(=O)N(C)[C@@H](CC(C)C)C(=O)NCC(=O)N(C)[C@@H](C)C(=O)N[C@@H](Cc2ccccc2)C(=O)N[C@@H]([C@@H](C)O)C(=O)N(C)[C@@H](CC(C)C)C(=O)N[C@@H](Cc2ccccc2)C(=O)N(C)[C@@H](C(C)C)C(=O)N[C@H](C(=O)N2CCCCC2)CC(=O)N[C@@H](C)C(=O)N[C@@H](CC(C)C)C(=O)N1C [DP-8] (AL[NMeI][NMeL]G[NMeA]FT[NMeL]F[NMeV]D-Piperidide; lactam N-12) |  | 36 µL/min/mg |
| CC[C@H](C)[C@H]1C(=O)N(C)[C@@H](C)C(=O)N(C)[C@@H](Cc2ccccc2)C(=O)N[C@@H]([C@@H](C)O)C(=O)N(C)[C@@H](Cc2ccccc2)C(=O)N(C)[C@@H](CC(C)C)C(=O)N2CCC[C@H]2C(=O)N[C@H](C(=O)N2CCCCC2)Cc2cccc(c2)CCCCC(=O)NCC(=O)N(C)[C@@H](CC(C)C)C(=O)N1C [DP-860] (G[NMeL][NMeI][NMeA][NMeF]T[NMeF][NMeL]P[Phe(3-(CH2)4CO)]-Piperidide; lactam N-10) | 322 µL/min/mg |  |
| C=CC[C@@H]1NC(=O)[C@H](CC(C)C)N(C)C(=O)[C@H](C)N(C)C(=O)[C@@H](C(C)C)NC(=O)C[C@@H](C(=O)N2CCCCC2)NC(=O)[C@H]([C@@H](C)O)NC(=O)[C@H](CC(C)C)N(C)C(=O)[C@H](C)N(C)C(=O)[C@H](CC(C)C)N(C)C(=O)[C@H](Cc2ccccc2)NC(=O)[C@H](Cc2ccccc2)N(C)C1=O [DP-628] ([dV][NMeA][NMeL][AllylGly][NMeF]F[NMeL][NMeA][NMeL]TD-Piperidide; lactam N-11) | 36 µL/min/mg |  |
| C=C1CCC(=O)N[C@@H](CC(C)C)C(=O)N2CCC[C@H]2C(=O)N[C@@H]([C@@H](C)O)C(=O)N(C)CC(=O)N[C@@H](Cc2ccccc2)C(=O)N(C)[C@@H](C(C)C)C(=O)N(C)[C@@H](C)C(=O)N[C@@H](CC(C)C)C(=O)N(C)[C@@H](CC(C)C)C(=O)N[C@H](C(=O)N2CCCCC2)Cc2cccc1c2 [DP-866] | 211 µL/min/mg |  |
| CC[C@H](C)[C@@H]1NC(=O)[C@H](Cc2ccccc2)N(C)C(=O)[C@H](Cc2ccccc2)NC(=O)[C@H](CC(C)C)N(C)C(=O)[C@H](C(C)C)NC(=O)[C@H](CC(C)C)NC(=O)[C@H](C)N(C)C(=O)CNC(=O)[C@H](C)NC(=O)C[C@@H](C(=O)N2CCCCC2)NC(=O)[C@H]([C@@H](C)O)NC(=O)[C@H](CC(C)C)NC(=O)[C@H](C)N(C)C1=O [DP-83] (AG[NMeA]LV[NMeL]F[NMeF]I[NMeA]LTD-Piperidide; lactam N-13) | 39 µL/min/mg |  |
| CC[C@H](C)[C@@H]1NC(=O)[C@H](CC(C)C)N(C)C(=O)CN(C)C(=O)[C@H](Cc2ccccc2)NC(=O)[C@H](C(C)C)N(C)C(=O)[C@H](C)N(C)C(=O)[C@H]([C@@H](C)O)NC(=O)[C@H](C)N(C)C(=O)C[C@@H](C(=O)N2CCCCC2)NC(=O)[C@H](C)NC1=O [DP-675] ([NMeA]T[NMeA][NMeV]F[Sar][NMeL]IAD-Piperidide; lactam N-10) | 22 µL/min/mg |  |
| C=C1CCC(=O)N[C@@H](COC(C)(C)C)C(=O)N(CCC)CC(=O)N(C)[C@@H](CC(C)C)C(=O)N[C@@H]([C@@H](C)O)C(=O)N(C)[C@@H](Cc2ccccc2)C(=O)N(C)[C@@H](CC(C)C)C(=O)N(C)[C@@H]([C@@H](C)CC)C(=O)N(C)[C@@H](C)C(=O)N[C@H](C(=O)N2CCCCC2)Cc2ccc1cc2 [DP-839] | 91 µL/min/mg |  |
| CC[C@H](C)[C@H]1C(=O)N(C)[C@@H](C)C(=O)N[C@H](C(=O)N2CCCCC2)CC(=O)N[C@@H](C)C(=O)N[C@@H]([C@@H](C)O)C(=O)N(C)[C@@H](Cc2ccccc2)C(=O)N(C)[C@@H](CC(C)C)C(=O)N[C@@H](C(C)C)C(=O)N2CCC[C@H]2C(=O)N(C)[C@@H](Cc2ccccc2)C(=O)N[C@@H](CC(C)C)C(=O)N(C)CC(=O)N1C [DP-11] (AT[NMeF][NMeL]VP[NMeF]L[Sar][NMeI][NMeA]D-Piperidide; lactam N-12) |  | 67 µL/min/mg |
| CC[C@H](C)[C@H]1C(=O)NCC(=O)N(C)[C@@H](CC(C)C)C(=O)N[C@@H]([C@@H](C)O)C(=O)N2CC[C@H]2C(=O)N[C@@H](Cc2ccccc2)C(=O)N[C@H](C(=O)N2CCCCC2)CC(=O)N(C)[C@@H](C)C(=O)N[C@@H](Cc2ccccc2)C(=O)N(C)[C@@H](CC(C)C)C(=O)N[C@@H](CC(C)C)C(=O)N1C [DP-558] ([NMeA]F[NMeL]L[NMeI]G[NMeL]T[Aze]FD-Piperidide; lactam N-11) | 133 µL/min/mg |  |
| CCCN1CC(=O)N(C)[C@@H](Cc2ccccc2)C(=O)N[C@@H](C)C(=O)N(C)[C@@H](Cc2ccccc2)C(=O)N(C)[C@@H](CC(C)C)C(=O)N(C)[C@@H]([C@@H](C)CC)C(=O)N(C)[C@@H](CC(C)C)C(=O)N[C@H](C(=O)N2CCCCC2)Cc2cccc(c2)CCCCC(=O)N[C@@H](CC(C)C)C(=O)N[C@@H]([C@@H](C)O)C1=O [DP-867] (LT[NPrGly][NMeF]A[NMeF][NMeL][NMeI][NMeL][Phe(3-(CH2)4CO)]-Piperidide; lactam N-10) | 211 µL/min/mg |  |
| CC(C)C[C@@H]1NC(=O)[C@H](CC(C)C)N(C)C(=O)[C@H](CC(C)C)N(C)C(=O)[C@H](Cc2ccccc2)NC(=O)[C@H](Cc2ccccc2)N(C)C(=O)[C@H](CCC(N)=O)NC(=O)[C@H](CC(C)C)N(C)C(=O)[C@H](Cc2ccccc2)NC(=O)[C@H](C)NC(=O)C[C@@H](C(=O)N(C)[C@@H](Cc2ccccc2)C(=O)N[C@@H](C)C(=O)N2CCCCC2)NC1=O [DP-601] (AF[NMeL]Q[NMeF]F[NMeL][NMeL]LD[NMeF]A-Piperidide; lactam N-10) | 21 µL/min/mg |  |
| CC[C@H](C)[C@H]1C(=O)N2CCC[C@H]2C(=O)N(C)CC(=O)N[C@@H]([C@@H](C)O)C(=O)N[C@H](C(=O)N2CCCCC2)CC(=O)N[C@@H](C)C(=O)N[C@@H](C(C)C)C(=O)N(C)[C@@H](CC(C)C)C(=O)N(C)[C@@H](CC(C)C)C(=O)N(C)[C@@H](Cc2ccccc2)C(=O)N[C@@H](Cc2ccccc2)C(=O)N1C [DP-15] (AV[NMeL][NMeL][NMeF]F[NMeI]P[Sar]TD-Piperidide; lactam N-11) |  | 34 µL/min/mg |
| CC[C@H](C)[C@@H]1NC(=O)[C@H](C)NC(=O)C[C@@H](C(=O)N2CCCCC2)NC(=O)[C@H](CC(C)C)N(C)C(=O)[C@H](CC(C)C)N(C)C(=O)[C@H](C(C)C)NC(=O)[C@H](C)NC(=O)[C@H](Cc2ccccc2)N(C)C(=O)[C@H](Cc2ccccc2)N(C)C(=O)[C@H]([C@@H](C)O)NC(=O)[C@H](CC(C)C)N(C)C(=O)[C@@H]2CCCN2C1=O [DP-10] (AIP[NMeL]T[NMeF][NMeF]AV[NMeL][NMeL]D-Piperidide; lactam N-12) |  | 14 µL/min/mg |
| CC[C@H](C)[C@@H]1NC(=O)[C@H](Cc2ccccc2)N(C)C(=O)[C@H](Cc2ccccc2)NC(=O)[C@H](CC(C)C)NC(=O)[C@H](CC(C)C)N(C)C(=O)[C@H](C)N(C)C(=O)[C@H](C(C)C)NC(=O)[C@H](C)NC(=O)C[C@@H](C(=O)N2CCCCC2)NC(=O)[C@H](CC(C)C)N(C)C(=O)[C@H]([C@@H](C)O)NC(=O)[C@@H]2CCCN2C1=O [DP-25] (AV[NMeA][NMeL]LF[NMeF]IPT[NMeL]D-Piperidide; lactam N-12) |  | 24 µL/min/mg |
| CC(C)C[C@H]1C(=O)N(C)CC(=O)N(C)[C@@H](C)C(=O)N[C@@H]([C@@H](C)O)C(=O)N[C@H](C(=O)N2CCCCC2)CC(=O)N[C@H](C(C)C)C(=O)N(C)[C@@H](C)C(=O)N(C)[C@@H](CC(C)C)C(=O)N[C@@H](CC#N)C(=O)N(C)[C@@H](Cc2ccccc2)C(=O)N[C@@H](Cc2ccccc2)C(=O)N1C [DP-629] ([dV][NMeA][NMeL][Ala(CN)][NMeF]F[NMeL][Sar][NMeA]TD-Piperidide; lactam N-11) | 16 µL/min/mg |  |
| CC(C)C[C@@H]1NC(=O)[C@H](Cc2ccccc2)NC(=O)[C@H](CC(C)C)N(C)C(=O)[C@H](Cc2ccccc2)NC(=O)CCCCCc2ccc(cc2)C[C@@H](C(=O)N2CCCCC2)NC(=O)[C@H](Cc2ccccc2)N(C)C(=O)CNC(=O)[C@H]([C@@H](C)O)NC(=O)[C@H](CC(C)C)NC1=O [DP-842] (F[NMeL]FLLTG[NMeF][Phe(4-(CH2)5CO)]-Piperidide; lactam N-9) | 135 µL/min/mg |  |

— patent publication US9409952B2, “Peptide-compound cyclization method” (Chugai Seiyaku Kabushiki Kaisha, priority 2011, dated 2016)
